In patent US20240351997A1, “NOVEL PARP7 INHIBITOR AND USE THEREOF” (SHANGHAI QILU PHARMACEUTICAL RESEARCH AND DEVELOPMENT …, priority 2021, published 2024) one finds IC50 data, which are given here for 20 compounds.

The target in the assay is PARP7 (Homo sapiens (Human), UniProt Q7Z3E1). The assay is described as follows: In vitro enzymology experiment of PARP7 (enzymatic inhibition). The format is biochemical. In short, it runs like this: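 Histone-coated plate ADP-ribosylation format: compound preincubated 10 min at room temperature with preincubated (25 °C, 10 min) enzyme mixture; incorporated biotin detected by streptavidin-HRP and QuantaRed fluorescence (Ex550/Em620).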
Sequence of PARP7 (Q7Z3E1 whole entry): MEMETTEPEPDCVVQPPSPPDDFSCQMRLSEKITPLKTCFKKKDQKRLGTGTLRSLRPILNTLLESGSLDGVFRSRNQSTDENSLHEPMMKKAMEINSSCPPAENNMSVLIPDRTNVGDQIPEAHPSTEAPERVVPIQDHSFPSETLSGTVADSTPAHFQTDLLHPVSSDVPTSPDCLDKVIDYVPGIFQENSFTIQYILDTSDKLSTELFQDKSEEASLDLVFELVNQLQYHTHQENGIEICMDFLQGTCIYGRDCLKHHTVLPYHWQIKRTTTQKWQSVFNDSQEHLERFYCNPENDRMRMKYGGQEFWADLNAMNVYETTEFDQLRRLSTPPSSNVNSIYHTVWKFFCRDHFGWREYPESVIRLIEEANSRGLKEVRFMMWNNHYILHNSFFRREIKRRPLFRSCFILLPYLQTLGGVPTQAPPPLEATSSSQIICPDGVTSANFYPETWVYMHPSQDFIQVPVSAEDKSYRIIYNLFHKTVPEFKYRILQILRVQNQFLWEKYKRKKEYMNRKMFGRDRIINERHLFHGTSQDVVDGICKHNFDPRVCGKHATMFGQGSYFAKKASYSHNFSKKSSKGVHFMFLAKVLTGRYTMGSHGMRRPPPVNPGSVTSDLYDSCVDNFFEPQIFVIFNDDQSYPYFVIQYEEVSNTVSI
For orientation: IC50 means the midpoint of a concentration-inhibition curve. Low readings indicate greater potency in that assay, high ones weaker potency in that assay. Regarding `Cc1cnc(N2C[C@H](C)N(C(=O)OCCc3c[nH]c(=O)c(C(F)(F)F)c3)[C@@H](C)C2)nc1` [Example 164, 2-(6-Oxo-5-(trifluoromethyl)-1,6-dihydropyridin-3-yl)ethyl (2S,6S)-2,6-dimethyl-4-(5-methylpyrimidin-2-yl)piperazine-1-carboxylate], 5.6 nM corresponded to half-maximal inhibition (IC50).

In turn, `O=C(CCO[C@@H]1CCC[C@@H]1c1c[nH]c(=O)c(C(F)(F)F)c1)N1CCN(c2ncc(C(F)(F)F)cn2)CC1` [Example 47, 5-((1R,2R)-2-(3-Oxo-3-(4-(5-(trifluoromethyl)pyrimidin-2-yl)piperazin-1-yl)propoxy)cyclopentyl)-3-(trifluoromethyl)pyridin-2(1H)-one] had an IC50 of 7.22 nM.

Regarding `O=C(O[C@@H]1CCC[C@H]1c1c[nH]c(=O)c(C(F)(F)F)c1)N1CCN(c2ncc(C(F)(F)F)cn2)CC1` (single isomer, unassigned) [Example 70], the IC50 came out at 0.91 nM. Against the preceding compound, the IC50 is about 7.9-fold lower.

In turn, `CNC(=O)c1cnc(N2CCN(C(=O)O[C@@H](C)Cc3c[nH]c(=O)c(C(F)(F)F)c3)CC2)nc1` [Example 87, (S)-1-(6-Oxo-5-(trifluoromethyl)-1,6-dihydropyridin-3-yl)propan-2-yl 4-(5-(methylcarbamoyl)pyrimidin-2-yl)piperazine-1-carboxylate] had an IC50 of 0.5 nM. Compared with the last compound, the IC50 is about 1.8-fold lower.

Compound `C[C@@H]1CN(C(=O)O[C@@H](C)Cc2c[nH]c(=O)c(C(F)(F)F)c2)C[C@H](C)N1c1ncc(C(F)(F)F)cn1` [Example 162, (S)-1-(6-Oxo-5-(trifluoromethyl)-1,6-dihydropyridin-3-yl)propan-2-yl (3S,5R)-3,5-dimethyl-4-(5-(trifluoromethyl)pyrimidin-2-yl)piperazine-1-carboxylate] gave an IC50 of 1.2 nM.

For the compound `Cc1c(C[C@H](C)OC(=O)N2CCN(c3ncc(C(F)(F)F)cn3)CC2)c[nH]c(=O)c1C(F)(F)F` [Example 81, (S)-1-(4-Methyl-6-oxo-5-(trifluoromethyl)-1,6-dihydropyridin-3-yl)propan-2-yl 4-(5-(trifluoromethyl)pyrimidin-2-yl)piperazine-1-carboxylate], the IC50 came to 0.75 nM.

For `Cc1cnc(N2C[C@@H](C)N(C(=O)O[C@@H](C)Cc3c[nH]c(=O)c(C(F)(F)F)c3)C[C@@H]2C)nc1` [Example 172, (S)-1-(6-Oxo-5-(trifluoromethyl)-1,6-dihydropyridin-3-yl)propan-2-yl (2R,5S)-2,5-dimethyl-4-(5-methylpyrimidin-2-yl)piperazine-1-carboxylate], inhibition was half-maximal at 0.84 nM (IC50).

The compound `Cc1cc(OC(=O)N2CCN(c3ncc(C(F)(F)F)cn3)CC2)cc(-c2c[nH]c(=O)c(C(F)(F)F)c2)c1` [Example 138, 3-Methyl-5-(6-oxo-5-(trifluoromethyl)-1,6-dihydropyridin-3-yl)phenyl 4-(5-(trifluoromethyl)pyrimidin-2-yl)piperazine-1-carboxylate] displayed an IC50 of 1.8 nM.

`C[C@@H](Cc1c[nH]c(=O)c(C(F)(F)F)c1)OC(=O)N1CCN(c2ncc(CO)cn2)CC1` [Example 75, (S)-1-(6-Oxo-5-(trifluoromethyl)-1,6-dihydropyridin-3-yl)propan-2-yl 4-(5-(hydroxymethyl)pyrimidin-2-yl)piperazine-1-carboxylate] displayed an IC50 of 0.83 nM. Compared with the last compound, the IC50 is about 2.2-fold lower.

Consider `C[C@H]1CN(c2ncc(C3CC3)cn2)C[C@H](C)N1C(=O)OCCc1c[nH]c(=O)c(C(F)(F)F)c1` [Example 182, 2-(6-Oxo-5-(trifluoromethyl)-1,6-dihydropyridin-3-yl)ethyl (2S,6S)-4-(5-cyclopropylpyrimidin-2-yl)-2,6-dimethylpiperazine-1-carboxylate], for which the IC50 is 5.5 nM.

`C[C@@H]1CN(c2ncc(C(F)(F)F)cn2)C[C@@H](C)N1C(=O)O[C@@H](C)Cc1c[nH]c(=O)c(C(F)(F)F)c1` [Example 158, (S)-1-(6-Oxo-5-(trifluoromethyl)-1,6-dihydropyridin-3-yl)propan-2-yl (2R,6R)-2,6-dimethyl-4-(5-(trifluoromethyl)pyrimidin-2-yl)piperazine-1-carboxylate] registered an IC50 of 5 nM.

As for `CC(C)(O)c1cnc(N2CCN(C(=O)OCCc3c[nH]c(=O)c(C(F)(F)F)c3)CC2)nc1` [Example 114, 2-(6-Oxo-5-(trifluoromethyl)-1,6-dihydropyridin-3-yl)ethyl 4-(5-(2-hydroxypropan-2-yl)pyrimidin-2-yl)piperazine-1-carboxylate], 0.53 nM corresponded to half-maximal inhibition (IC50).

In the case of `CC(CC(=O)N1CCN(c2ncc(C(F)(F)F)cn2)CC1)c1c[nH]c(=O)c(C(F)(F)F)c1` (centres unmarked) [Example 38, 5-(4-Oxo-4-(4-(5-(trifluoromethyl)pyrimidin-2-yl)piperazin-1-yl)butan-2-yl)-3-(trifluoromethyl)pyridin-2(1H)-one], half-maximal inhibition (IC50) was put at 1.1 nM.

`O=C(CCc1c[nH]c(=O)c(C(F)(F)F)c1)N1CCN(c2ncc(C(F)(F)F)cn2)CC1` [Example 28, 5-(3-Oxo-3-(4-(5-(trifluoromethyl)pyrimidin-2-yl)piperazin-1-yl)propyl)-3-(trifluoromethyl)pyridin-2(1H)-one]: the IC50 was determined as 0.9 nM.

In turn, `Cc1cnc(N2C[C@H](C)N(C(=O)O[C@@H](C)Cc3c[nH]c(=O)c(C(F)(F)F)c3)[C@@H](C)C2)nc1` [Example 171, (S)-1-(6-Oxo-5-(trifluoromethyl)-1,6-dihydropyridin-3-yl)propan-2-yl (2S,6S)-2,6-dimethyl-4-(5-methylpyrimidin-2-yl)piperazine-1-carboxylate] gave an IC50 of 1.4 nM. This IC50 lies about 1.6-fold higher than the previous one.

`CC(=O)c1cnc(N2CCN(C(=O)O[C@@H](C)Cc3c[nH]c(=O)c(C(F)(F)F)c3)CC2)nc1` [Example 120, (S)-1-(6-Oxo-5-(trifluoromethyl)-1,6-dihydropyridin-3-yl)propan-2-yl 4-(5-acetylpyrimidin-2-yl)piperazine-1-carboxylate] yielded a concentration for half-maximal inhibition (IC50) of 0.66 nM.

Compound `C[C@@H](Cc1c[nH]c(=O)c(C(F)(F)F)c1)OC(=O)N1CCN(c2ncc(C(F)(F)F)cn2)C[C@@H]1CO` [Example 78, (S)-1-(6-Oxo-5-(trifluoromethyl)-1,6-dihydropyridin-3-yl)propan-2-yl (R)-2-(hydroxymethyl)-4-(5-(trifluoromethyl)pyrimidin-2-yl)piperazine-1-carboxylate] returned an IC50 of 1.4 nM.

On to `C[C@@H]1CN(C(=O)O[C@@H](C)Cc2c[nH]c(=O)c(C(F)(F)F)c2)[C@@H](C)CN1c1ncc(C2CC2)cn1` [Example 178, (S)-1-(6-Oxo-5-(trifluoromethyl)-1,6-dihydropyridin-3-yl)propan-2-yl (2S,5R)-4-(5-cyclopropylpyrimidin-2-yl)-2,5-dimethylpiperazine-1-carboxylate], for which the IC50 was 1.4 nM. This counts as single-digit nanomolar.

Compound `O=C(Cc1cc(C(F)(F)F)c(=O)[nH]n1)NCC(=O)N1CCN(c2ncc(C(F)(F)F)cn2)CC1` [Example 5, N-(2-Oxo-2-(4-(5-(trifluoromethyl)pyrimidin-2-yl)piperazin-1-yl)ethyl)-2-(6-oxo-5-(trifluoromethyl)-1,6-dihydropyridazin-3-yl)acetamide] showed an IC50 of 5.83 nM. Against the preceding compound, the IC50 is about 4.2-fold higher.

In turn, `CC(Cc1c[nH]c(=O)c(C(F)(F)F)c1)OC(=O)N1CCN(c2ncc(C#N)cn2)CC1` (centres unmarked) [Example 45, 1-(6-Oxo-5-(trifluoromethyl)-1,6-dihydropyridin-3-yl)propan-2-yl 4-(5-cyanopyrimidine-2-yl)piperazine-1-carboxylate] had an IC50 of 2.26 nM.
